These results are taken from paper PMC8073686, “Characterization of Subtype Selective Cannabinoid CB2 Receptor Agonists as Potential Anti-Inflammatory Agents” (Pharmaceuticals, 2021).

Assay type in all cases: cell-based, human
The subject of test [1] is TNF-α production in Jurkat cells. Put plainly: PHA/PMA-induced TNF-α production in Jurkat cells (ELISA of culture medium). As to conditions: 10 μM, 24 h. As to the method: (§1) Activation of CB2 is known to have anti-inflammatory effects. There are some studies reporting that CB2 agonists decrease cytokine production in immune cells. We also reported that the cannabinoid receptor agonist CP55,940 and ABK5 inhibit cytokine production in the human T cell lines Jurkat and MOLT-4 [24]. Since ABK5-1 and 5-2 were confirmed to be CB2-subtype selective agonists, we were interested to determine whether these compounds also have anti-inflammatory effects. Note, although ABK5-6 had marginally better binding affinity to CB2, it bound to CB1 very, very weakly (i.e., micromolar range). Therefore ABK5-6 was not selected for further evaluations. […] To test if these mRNA changes are reflected in the protein levels of cytokines, the IL-2 and TNF-α concentration in the cell culture medium were measured by ELISA. […]
(§2) Figure 4 Effect of ABK5-1 and ABK5-2 on phytohemagglutinin (PHA)/phorbol 12-myristate 13-acetate (PMA)-induced cytokine production in T cells. […] IL-2 and TNF-α mRNA levels were determined by real-time PCR (RT-PCR) after ABK5-1 treatment and (A) 3 h and (B) 24 h of PHA/PMA (phytohemagglutinin/phorbol 12-myristate 13-acetate) stimulation. […] IL-2 and TNF-α mRNA were also examined after ABK5-2 treatment and (E) 3 h and (F) 24 h of stimulation, and protein levels of (G) IL-2 and (H) TNF-α were measured after 24 h stimulation. […]
A general note: An ELISA detects its analyte on a solid surface through an enzyme-linked reagent.

The test system of test [2] is IL-2 production in Jurkat cells. Put plainly: PHA/PMA-induced IL-2 production in Jurkat cells (ELISA of culture medium). As to conditions: 10 μM, 24 h. As to the method: as §1, §2
Test [3] concerns TNF-α mRNA in Jurkat cells. Briefly: PHA/PMA-induced TNF-α mRNA in Jurkat cells (RT-PCR). As to conditions: 10 μM. As to the method:
Activation of CB2 is known to have anti-inflammatory effects. There are some studies reporting that CB2 agonists decrease cytokine production in immune cells. We also reported that the cannabinoid receptor agonist CP55,940 and ABK5 inhibit cytokine production in the human T cell lines Jurkat and MOLT-4 [24]. Since ABK5-1 and 5-2 were confirmed to be CB2-subtype selective agonists, we were interested to determine whether these compounds also have anti-inflammatory effects. Note, although ABK5-6 had marginally better binding affinity to CB2, it bound to CB1 […] (i.e., micromolar range). Therefore ABK5-6 was not selected for further evaluations. We first tested the change of IL-2 and TNF-α mRNA levels in Jurkat cells. […] To test if these mRNA changes are reflected in the protein levels of cytokines, the IL-2 and TNF-α concentration in the cell culture medium were measured by ELISA. […] Unlike ABK5-1, at 3 h of treatment, the lowest concentration of ABK5-2 used caused the IL-2 mRNA decrease. […] On the other hand, TNF-α mRNA decreased by 45% at 10 μM ABK5-2 after 3 h of treatment (Figure 4E, black columns). […] These mRNA level changes were similar to that of ABK5-1, except ABK5-2 caused a stronger inhibitory effect on expression of TNF-α mRNA. […] Consistent with the mRNA levels, the inhibitory effect of ABK5-2 on TNF-α production was stronger than that of ABK5-1.
Figure 4 Effect of ABK5-1 and ABK5-2 on phytohemagglutinin (PHA)/phorbol 12-myristate 13-acetate (PMA)-induced cytokine production in T cells. Jurkat cells were pretreated with DMSO (<0.1%; indicated as 0 μM) or various concentrations of ABK5-1 (A–D) or ABK5-2 (E–H) and stimulated with PHA and PMA. IL-2 and TNF-α mRNA levels were determined by real-time PCR (RT-PCR) after ABK5-1 treatment and (A) 3 h and (B) 24 h of PHA/PMA (phytohemagglutinin/phorbol 12-myristate 13-acetate) stimulation. Protein levels of (C) IL-2 and (D) TNF-α were also examined after 24 h of stimulation. IL-2 and TNF-α mRNA were also examined after ABK5-2 treatment and (E) 3 h and (F) 24 h of stimulation, and protein levels of (G) IL-2 and (H) TNF-α were measured after 24 h stimulation. […]
Jurkat cells were lysed and total RNA was extracted using TRIzol Reagent (Life Technologies, Carlsbad, CA, USA) followed by reverse transcription by a High-Capacity cDNA Reverse Transcription kit (Life Technologies, Carlsbad, CA, USA) according to the manufacturer’s instructions. Quantitative real-time PCR was performed using an Applied Biosystems 7500 Fast Real-Time PCR system in a 10 μL reaction volume containing 2 μL diluted cDNA and 0.5 μM each of forward and reverse primers, and PowerUp SYBR Green Master Mix (Life Technologies, Carlsbad, CA, USA). […]

Regarding `CCOC(=O)c1ccccc1NC(=O)CN(c1ccc(C)cc1C)S(=O)(=O)c1ccccc1` [ABK5-1], the “decrease of TNF-α production (protein, ELISA)” value in test [1] is recorded as approximately 37%. Moreover, the “decrease of IL-2 production (protein, ELISA)” value in test [2] is recorded as “about 42%”. The figures for the “decrease of TNF-α mRNA” value in test [3] (3 h PHA/PMA stimulation) and in test [3] (24 h) were 35% and 50%, respectively.
For `CCOC(=O)c1ccccc1NC(=O)CN(c1c(C)cccc1C)S(=O)(=O)c1ccccc1` [ABK5-2], in that order: approximately 43%, “about 42%”, 45% and “about 60%”.
